Assay results from PMC8452301 (CPT: Pharmacometrics & Systems Pharmacology, 2021).
Where two headings read alike, the source gives them in different places.

Tests used:
[1] = cited from earlier work
[2] = cited from earlier work; remark: listed apart in the source
[3] = Physicochemical input parameters; details: high solubility–high permeability
[4] = type: in vivo, human; details: observed
[5] = cited from earlier work; remark: listed apart in the source
[6] = 4-mg single dose, geometric mean, observed N=7
[7] = 4-mg single dose, mean, observed N=7
[8] = 4-mg single dose, median, observed N=7
[9] = 4-mg, q.d. dosing, geometric mean, observed N=5
[10] = 4-mg, q.d. dosing, mean, observed N=5
[11] = 9-mg q.d. dosing, geometric mean, observed N=6
[12] = 9-mg q.d. dosing, mean, observed N=6
[13] = 9-mg q.d. dosing, median, observed N=6
[14] = 9-mg single dose, geometric mean, observed N=9
[15] = 9-mg single dose, mean, observed N=9
[16] = 9-mg single dose, median, observed N=9
[17] = 4-mg single dose, no inhibitor, Cohort A n=17, mean
[18] = 4-mg with 200-mg q.d. itraconazole, Cohort C, geometric mean
[19] = 4-mg with 200-mg q.d. itraconazole, Cohort C, mean
[20] = 4-mg with 400-mg q.d. fluconazole, Cohort B, geometric mean
[21] = 4-mg with 400-mg q.d. fluconazole, Cohort B, mean

Biopharmaceutics Classification System class [3]: Class 1 | difference in total exposure, patients with cancer versus healthy subjects [4]: ~ 1.4 fold
Compound: COc1cc(OC)cc(N(CCNC(C)C)c2ccc3ncc(-c4cnn(C)c4)nc3c2)c1 [erdafitinib]
AUC0–72 [1, 6]: 6022 ng·h/mL | Cmax [1, 6]: 163 ng/mL | AUC0–72 [1, 7]: 6743 ng·h/mL | Cmax [1, 7]: 182 ng/mL | AUC0–72 [1, 8]: 6360 ng·h/mL | Cmax [1, 8]: 173 ng/mL | AUCtau [1, 9]: 12,064 ng·h/ml | Cmax [1, 9]: 630 ng/mL | AUCtau [1, 10]: 13,516 ng·h/ml | Cmax [1, 10]: 675 ng/mL | Cmax ([1]; 4-mg, q.d. dosing, median, observed N=5): 569 ng/mL | AUCtau [1, 11]: 36,608 ng·h/ml | Cmax [1, 11]: 1911 ng/mL | AUCtau [1, 12]: 39,587 ng·h/ml | Cmax [1, 12]: 2018 ng/mL | AUCtau [1, 13]: 30,594 ng·h/ml | Cmax [1, 13]: 1765 ng/mL | AUC0–72 [1, 14]: 15,091 ng·h/ml | Cmax [1, 14]: 390 ng/mL | AUC0–72 [1, 15]: 17,564 ng·h/ml | Cmax [1, 15]: 431 ng/mL | AUC0–72 [1, 16]: 16,053 ng·h/ml | Cmax [1, 16]: 389 ng/mL | AUCinf ([2]; 4-mg single dose, no inhibitor, Cohort A n=17, geometric mean): 8777 ng·h/mL | AUCinf [2, 17]: 9145 ng·h/mL | Cmax [2, 17]: 138 ng/mL | AUCinf [2, 18]: 11,785 ng·h/ml | Cmax [2, 18]: 140 ng/mL | AUCinf [2, 19]: 12,228 ng·h/ml | Cmax [2, 19]: 145 ng/mL | AUCinf [2, 20]: 13,060 ng·h/ml | Cmax [2, 20]: 162 ng/mL | AUCinf [2, 21]: 14,233 ng·h/ml | Cmax [2, 21]: 177 ng/mL | unchanged drug recovered in feces ([5]; over ~ 16 days): 17% | unchanged drug recovered in feces ([5]; within the first 3 days): < 5 % of the dose
